Laboratory results from ChEMBL document CHEMBL1201862, “PubChem BioAssay data set” (2004).
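These data come from cells grown in 96-well plates and exposed to compound for 48 hours at five concentrations. Abbreviation: GI50, concentration required for 50% inhibition of growth.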 The source made the active and inactive calls. Cut-off read from the data, not from the text of the source: active = GI50 up to about 1.1 µM and inactive = higher.

What was measured:
Assay in all cases: NCI tumour cell line growth inhibition, 48 h
HOP-92 = test system: HOP-92
SNB-19 = test system: SNB-19
SNB-75 = test system: SNB-75
SF-268 = test system: SF-268
RXF 393 = test system: RXF 393
CAKI-1 = test system: CAKI-1
SW-620 = test system: SW-620
A549 = test system: A549
MDA-MB-231 = test system: MDA-MB-231
SF-539 = test system: SF-539
T47D = test system: T47D
OVCAR-8 = test system: OVCAR-8
BT-549 = test system: BT-549
NCI-H23 = test system: NCI-H23
K562 = test system: K562
HL-60 = test system: HL-60
Hs-578T = test system: Hs-578T
NCI-H226 = test system: NCI-H226
U-251 = test system: U-251
MDA-MB-435 = test system: MDA-MB-435

Row | Structure (SMILES) | GI50 (HOP-92) | GI50 (SNB-19) | GI50 (SNB-75) | GI50 (SF-268) | GI50 (RXF 393) | GI50 (CAKI-1) | GI50 (SW-620) | GI50 (A549) | GI50 (MDA-MB-231) | GI50 (SF-539) | GI50 (T47D) | GI50 (OVCAR-8) | GI50 (BT-549) | GI50 (NCI-H23) | GI50 (K562) | GI50 (HL-60) | GI50 (Hs-578T) | GI50 (NCI-H226) | GI50 (U-251) | GI50 (MDA-MB-435)
1 | CC[C@@H]1CC[C@@H]2[C@H](CC[C@]3(C)[C@@H](OC(C)=O)CC[C@@H]23)[C@H]1C(=O)OC | 13.4 µM (inactive) | 25.4 µM (inactive) | 22.3 µM (inactive) | 23.4 µM (inactive) | 24.6 µM (inactive) | 35.3 µM (inactive) | 21.8 µM (inactive) | 24.4 µM (inactive) | 20.6 µM (inactive) | 19.2 µM (inactive) | 21.8 µM (inactive) | 27.9 µM (inactive) | 34.4 µM (inactive) | 24.4 µM (inactive) | 20 µM (inactive) | 13.3 µM (inactive) | 46.1 µM (inactive) | 18.8 µM (inactive) | 21.2 µM (inactive) | 20.9 µM (inactive)
2 | Cc1ncc(C/N=C/c2ccc(Cl)cc2)c(N)n1 | > 100 µM (inactive) | > 100 µM (inactive) | > 100 µM (inactive) | > 100 µM (inactive) | > 100 µM (inactive) | > 100 µM (inactive) | > 100 µM (inactive) | > 100 µM (inactive) | > 100 µM (inactive) | > 100 µM (inactive) | > 100 µM (inactive) | > 100 µM (inactive) | > 100 µM (inactive) | > 100 µM (inactive) | > 100 µM (inactive) | > 100 µM (inactive) | > 100 µM (inactive) | > 100 µM (inactive) | > 100 µM (inactive) | > 100 µM (inactive)
3 | CCCCOCCOC1=CC(=O)c2c(O)ccc(O)c2C1=O | 2.56 µM (inactive) | 1.75 µM (inactive) | 1.57 µM (inactive) | 1.76 µM (inactive) | 1.66 µM (inactive) | 1.78 µM (inactive) | 1.45 µM (inactive) | 1.75 µM (inactive) | 1.95 µM (inactive) | 1.58 µM (inactive) | 2.06 µM (inactive) | – | 1.63 µM (inactive) | 1.7 µM (inactive) | 2 µM (inactive) | 0.506 µM (active) | 2.22 µM (inactive) | 1.72 µM (inactive) | 1.7 µM (inactive) | 0.185 µM (active)
4 | O=[N+]([O-])c1ccc(C(Nc2ccccc2)P(c2ccccc2)c2ccccc2)cc1 (centres undefined) | > 100 µM (inactive) | > 100 µM (inactive) | > 100 µM (inactive) | > 100 µM (inactive) | > 100 µM (inactive) | > 100 µM (inactive) | > 100 µM (inactive) | > 100 µM (inactive) | > 100 µM (inactive) | > 100 µM (inactive) | > 100 µM (inactive) | > 100 µM (inactive) | > 100 µM (inactive) | > 100 µM (inactive) | 22.5 µM (inactive) | > 100 µM (inactive) | > 100 µM (inactive) | > 100 µM (inactive) | > 100 µM (inactive) | > 100 µM (inactive)
5 | COCc1nc2c(OC)c(-c3nc4ccc(N5CCN(C)CC5)nc4[nH]3)cc(OC)c2n1C | > 100 µM (inactive) | 35.4 µM (inactive) | 18.5 µM (inactive) | 45.2 µM (inactive) | 20.3 µM (inactive) | 40.7 µM (inactive) | 28.6 µM (inactive) | 35.7 µM (inactive) | 17.7 µM (inactive) | 12.3 µM (inactive) | 38.6 µM (inactive) | 33.9 µM (inactive) | 43.7 µM (inactive) | 58.3 µM (inactive) | 29.3 µM (inactive) | 17.4 µM (inactive) | 55.3 µM (inactive) | 22.4 µM (inactive) | 21.7 µM (inactive) | 20.4 µM (inactive)
6 | O=c1cc(N=P(c2ccccc2)(c2ccccc2)c2ccccc2)n(-c2ccccc2)c(=O)n1-c1ccccc1 | 9.02 µM (inactive) | 17.7 µM (inactive) | 10.1 µM (inactive) | 29 µM (inactive) | 1.53 µM (inactive) | 12.7 µM (inactive) | 7.45 µM (inactive) | 6.25 µM (inactive) | 8.18 µM (inactive) | 3.76 µM (inactive) | 8.85 µM (inactive) | 12.3 µM (inactive) | 14.5 µM (inactive) | 5.85 µM (inactive) | 3.31 µM (inactive) | 5.06 µM (inactive) | 18.2 µM (inactive) | 3.92 µM (inactive) | 8.02 µM (inactive) | 5.2 µM (inactive)
7 | CCC(O)CC1OC2(CCC1C)CC1OC(=O)/C=C\C(C)(O)C(O)C(C)C(O)C(OC3CC(OC)C(O)C(C)O3)C(O)C(C)(O)CCC/C=C/C3CC(C)COC3(O)CC(O2)C1C (centres undefined) | 25.6 µM (inactive) | 0.0743 µM (active) | 2.37 µM (inactive) | 17.8 µM (inactive) | 26.2 µM (inactive) | 1.24 µM (inactive) | 14.8 µM (inactive) | < 0.0214 µM (active) | 12 µM (inactive) | 17.3 µM (inactive) | < 0.0107 µM (active) | < 0.0111 µM (active) | 3.66 µM (inactive) | < 0.0176 µM (active) | < 0.01 µM (active) | < 0.0199 µM (active) | 12.1 µM (inactive) | 0.0904 µM (active) | < 0.01 µM (active) | 1.91 µM (inactive)
8 | c1ccc(SCCc2ccncc2)cc1 | 45.7 µM (inactive) | > 100 µM (inactive) | > 100 µM (inactive) | > 100 µM (inactive) | > 100 µM (inactive) | 53 µM (inactive) | > 100 µM (inactive) | 84.5 µM (inactive) | > 100 µM (inactive) | > 100 µM (inactive) | 52.1 µM (inactive) | > 100 µM (inactive) | > 100 µM (inactive) | 67.6 µM (inactive) | 49.5 µM (inactive) | 50.6 µM (inactive) | > 100 µM (inactive) | 77.1 µM (inactive) | > 100 µM (inactive) | > 100 µM (inactive)
9 | Cc1ccc(/N=N\c2c(O)c(S(=O)(=O)O)cc3cc(S(=O)(=O)O)ccc23)c(C)c1 | > 100 µM (inactive) | > 100 µM (inactive) | > 100 µM (inactive) | > 100 µM (inactive) | > 100 µM (inactive) | > 100 µM (inactive) | > 100 µM (inactive) | > 100 µM (inactive) | > 100 µM (inactive) | > 100 µM (inactive) | > 100 µM (inactive) | > 100 µM (inactive) | > 100 µM (inactive) | > 100 µM (inactive) | > 100 µM (inactive) | > 100 µM (inactive) | > 100 µM (inactive) | > 100 µM (inactive) | > 100 µM (inactive) | > 100 µM (inactive)
10 | CCOC(=O)c1c(N2CCCC2)[nH]c(=O)c(C(c2ccco2)c2c(O)c(C(=O)OCC)c(N3CCCC3)[nH]c2=O)c1O | > 100 µM (inactive) | 38.7 µM (inactive) | 23.4 µM (inactive) | 85.3 µM (inactive) | 54.5 µM (inactive) | > 100 µM (inactive) | > 100 µM (inactive) | > 100 µM (inactive) | > 100 µM (inactive) | > 100 µM (inactive) | 19.4 µM (inactive) | 92.9 µM (inactive) | > 100 µM (inactive) | > 100 µM (inactive) | > 100 µM (inactive) | > 100 µM (inactive) | 27.9 µM (inactive) | > 100 µM (inactive) | 73.8 µM (inactive) | > 100 µM (inactive)
11 | COc1cc(-c2[o+]c3cc(O)cc(OC4OC(CO)C(O)C(O)C4O)c3cc2OC2OC(CO)C(O)C(O)C2O)cc(OC)c1O (centres undefined) | > 100 µM (inactive) | > 100 µM (inactive) | > 100 µM (inactive) | > 100 µM (inactive) | > 100 µM (inactive) | > 100 µM (inactive) | > 100 µM (inactive) | > 100 µM (inactive) | > 100 µM (inactive) | > 100 µM (inactive) | > 100 µM (inactive) | > 100 µM (inactive) | > 100 µM (inactive) | > 100 µM (inactive) | > 100 µM (inactive) | 21.1 µM (inactive) | > 100 µM (inactive) | > 100 µM (inactive) | > 100 µM (inactive) | > 100 µM (inactive)
12 | CCCC(CCC(N)=O)(CCC(N)=O)[N+](=O)[O-] | > 100 µM (inactive) | > 100 µM (inactive) | > 100 µM (inactive) | > 100 µM (inactive) | 69.3 µM (inactive) | > 100 µM (inactive) | > 100 µM (inactive) | > 100 µM (inactive) | > 100 µM (inactive) | > 100 µM (inactive) | > 100 µM (inactive) | > 100 µM (inactive) | > 100 µM (inactive) | > 100 µM (inactive) | > 100 µM (inactive) | > 100 µM (inactive) | > 100 µM (inactive) | > 100 µM (inactive) | > 100 µM (inactive) | > 100 µM (inactive)
13 | N#Cc1nc(/C=C/c2ccccc2)oc1N | > 100 µM (inactive) | > 100 µM (inactive) | > 100 µM (inactive) | > 100 µM (inactive) | > 100 µM (inactive) | > 100 µM (inactive) | > 100 µM (inactive) | > 100 µM (inactive) | > 100 µM (inactive) | > 100 µM (inactive) | > 100 µM (inactive) | > 100 µM (inactive) | 13.1 µM (inactive) | > 100 µM (inactive) | > 100 µM (inactive) | > 10 µM (inactive) | > 100 µM (inactive) | > 100 µM (inactive) | > 100 µM (inactive) | > 100 µM (inactive)
14 | Cc1occc1C(=S)Nc1ccc(Cl)c(/C=N/OC(C)C)c1 | 16.1 µM (inactive) | 27.1 µM (inactive) | 25.1 µM (inactive) | 28.1 µM (inactive) | 21.3 µM (inactive) | 17.3 µM (inactive) | 20.9 µM (inactive) | 22.3 µM (inactive) | 16.4 µM (inactive) | 16.7 µM (inactive) | 12.1 µM (inactive) | 22.8 µM (inactive) | 18.2 µM (inactive) | 20.1 µM (inactive) | 29.7 µM (inactive) | 26.7 µM (inactive) | 26.7 µM (inactive) | 18.2 µM (inactive) | 19.5 µM (inactive) | 16.4 µM (inactive)
